Values joined by “and” are separate entries in the source; they are usually repeats but may differ in a detail not shown here. Equal values may be shown once.
Test system: HCT-116 RAD21-mAC cells
Assay: In situ Hi-C: loops and loop domains (HiCCUPS, APA), auxin treatment and withdrawal time course
Format: cell-based, human
Description: To examine loop domains, Applicants used in situ Hi-C(Rao et al., 2014), which combines DNA-DNA proximity ligation and high-throughput sequencing to create maps showing the frequency of physical contact between all pairs of loci across the genome. Loop domains are manifest in Hi-C maps as a bright “peak” pixel (indicating the link between the two loop anchors) at the corner of a bright square (indicating the presence of a contact domain).
To see if these changes were reversible, Applicants performed a time-course analysis in which untreated cells were exposed to auxin for six hours, after which auxin was withdrawn (FIG. 2B, FIG. 9B). Low resolution Hi-C was performed immediately before treatment, as well as at a series of time points during treatment (at 20, 40, 60, 240, and 360 minutes) and after withdrawal (at 20, 40, 60, 180, 360, 1080, and 1440 minutes). To assess whether the anchors of the loop domains seen in the pre-treatment data continued to be linked (that is, co-located in space) subsequently, Applicants used a method called Aggregate Peak Analysis (APA) (Durand et al., 2016b), which superimposes the signals from a set of peak pixels, thus allowing Applicants to observe an aggregate signal even in sparse datasets where individual signals cannot be resolved (FIG. 2B). The APA signal was initially strong, but was gone by 40 minutes after treatment, and remained absent throughout the rest of the treatment period (FIG. 2B, 9B). The disappearance of the loop-domain links closely mirrored the depletion of cohesin levels in the samples during the treatment period, as ascertained by measuring mClover fluorescence (FIG. 8).
For our time course experiments, cells were treated with 500 uM IAA and crosslinked with 1% formaldehyde directly in wells of a 6-well plate at various time points after treatment (20, 40, 60, 240, 360 minutes). For the auxin withdrawal experiments, after 6 hours treatment with 500 um IAA, the cells were trypsinized, washed twice in fresh media and replated in 6-well plates in fresh media. They were then crosslinked with 1% formaldehyde directly in the 6-well plates at various time points after auxin withdrawal (20, 40, 60, 180, 360, 1080, 1440 minutes).
Applicants generated 69 in situ Hi-C libraries using the MboI restriction enzyme following the protocol described in (Rao et al., 2014) without modifications. In brief, the in situ Hi-C protocol involves crosslinking cells with formaldehyde, permeabilizing them with nuclei intact, digesting DNA with a suitable 4-cutter restriction enzyme, filling the 5′-overhangs while incorporating a biotinylated nucleotide, ligating the resulting blunt-end fragments, shearing the DNA, capturing the biotinylated ligation junctions with streptavidin beads, and analyzing the resulting fragments with paired-end sequencing.
Applicants generated 7 libraries each for the main maps (untreated HCT-116 RAD21-mAC cells and HCT-116 RAD21-mAC cells treated for 6 hours with IAA) comprised of two sets of biological replicates each (three and four technical replicate libraries per biological replicate). In addition, Applicants generated four technical replicate libraries each for untreated and treated HCT-116 RAD21-mAC cells after cell synchronization and arrest. Applicants also generated an additional 5 libraries from untreated HCT-116 RAD21-mAC cells and 4 libraries from HCT-116 RAD21-mAC cells treated for 6 hours with IAA (two additional biological replicates each) that were not included in our main maps, but were used for analysis of higher-order contacts (see below). Applicants generated four libraries (two biological replicates) for each of our loop-resolution maps along the auxin withdrawal time course (20, 40, 60 and 180 mins after auxin withdrawal). Finally, Applicants generated two technical replicate libraries per time point of our auxin treatment and withdrawal time course. […]

O=C(O)Cc1c[nH]c2ccccc12 [auxin, indole-3-acetic acid]
APA score for all loops after auxin treatment (10 kb resolution, >300 kb, untreated 2.09): 0.78
APA score for loop domains after auxin treatment (10 kb resolution, >300 kb, untreated 2.10): 0.78
number of loop domains found after auxin treatment (2,140 in untreated cells, all 9 false positives): 9
time after auxin withdrawal by which APA signal largely recovered (after 6 hours auxin): ≤ 1 h
time after auxin withdrawal with strong loop domain signal (after 6 hours auxin): ≤ 60 min
number of loops annotated in auxin-treated cells (default HiCCUPS 5, 10, 25 kb, 3,170 in untreated): 81
loops lost after auxin treatment (default HiCCUPS parameters): > 97% and ~98%
time after auxin withdrawal at which reformation of fast loop domains is apparent (fast loop domains): 20 to 40 min
time after auxin withdrawal until reformation of slow loop domains is seen (slow loop domains): 3 h
